Test systems include 786-0 renal; CCRF-CEM leukemia; DU-145 prostate; HL-60(TB) leukemia; M14 melanoma; MALME-3M melanoma; NCI/ADR-RES ovarian; SK-MEL-2 melanoma; SK-OV-3 ovarian; SW-620 colon; UACC-62 melanoma.
Common to all, as to experiment: NCI anticancer screen, dose series, 48 h

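Compound exposure: 48 hours, 5 concentrations, 96-well plates. Definition used: TGI = concentration required for complete inhibition of growth.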 Where a SMILES comes first, the peptide text is derived from it. The star is where a group is joined. Boc = CC(C)(C)OC(=O)*; OBn = c1ccc(CO*)cc1

Take `CCOC(=O)C(NC(=O)CC)(Nc1ccc(S(=O)(=O)Nc2onc(C)c2C)cc1)C(F)(F)F` (stereo not given): the TGI in the assay on 786-0 renal, in the assay with CCRF-CEM leukemia, in the assay on DU-145 prostate, with HL-60(TB) leukemia, with M14 melanoma and with MALME-3M melanoma was greater than 100 µM each time. The TGI in the assay with NCI/ADR-RES ovarian, with SK-MEL-2 melanoma, with SK-OV-3 ovarian, with SW-620 colon and in the assay on UACC-62 melanoma was greater than 100 µM in each case.
With `Cc1ccc(S(=O)(=O)NC(=O)NC(CCCCN=C(N)N)C(=O)O)cc1` (stereo not given), the TGI in the assay on 786-0 renal, in the assay on CCRF-CEM leukemia, in the assay on DU-145 prostate, in the assay with HL-60(TB) leukemia, in the assay with M14 melanoma and with MALME-3M melanoma was greater than 100 µM in each case. The TGI in the assay with NCI/ADR-RES ovarian, in the assay on SK-MEL-2 melanoma, in the assay with SK-OV-3 ovarian, with SW-620 colon and in the assay on UACC-62 melanoma was greater than 100 µM each time.
As for `O=C1CC(C(CC(=O)c2ccccc2)c2ccccc2)C(=O)c2ccccc2N1` (stereo not given), the TGI in the assay with 786-0 renal, with CCRF-CEM leukemia, in the assay with DU-145 prostate, in the assay with HL-60(TB) leukemia, in the assay with M14 melanoma and in the assay with MALME-3M melanoma was greater than 100 µM throughout. Further, the TGI in the assay on NCI/ADR-RES ovarian is 75.5 µM; in the assay with SK-MEL-2 melanoma, 41.4 µM; in the assay with SK-OV-3 ovarian, greater than 100 µM; in the assay with SW-620 colon, greater than 100 µM; with UACC-62 melanoma, greater than 100 µM.
With `O=S(=O)(O)c1cccc2cccc(N=Nc3c(O)ccc4ccccc34)c12`, the TGI with 786-0 renal, in the assay with CCRF-CEM leukemia, in the assay on DU-145 prostate, with HL-60(TB) leukemia, in the assay on M14 melanoma and in the assay on MALME-3M melanoma was greater than 100 µM each time. For the same molecule, the TGI in the assay with NCI/ADR-RES ovarian, in the assay with SK-MEL-2 melanoma, with SK-OV-3 ovarian, in the assay with SW-620 colon and with UACC-62 melanoma was greater than 100 µM in each case.
In the case of `CC(C)CC(NC(=O)OC(C)(C)C)C(=O)NC(CC(=O)OCc1ccccc1)C(=O)OCc1ccccc1` (stereo not drawn) (Boc-Leu-Asp(OBn)-OBn; configuration not given here), the TGI was 49.6 µM in the assay on 786-0 renal; greater than 100 µM with CCRF-CEM leukemia; greater than 100 µM in the assay on DU-145 prostate; greater than 100 µM with HL-60(TB) leukemia; 38.6 µM with M14 melanoma; greater than 100 µM in the assay with MALME-3M melanoma. The TGI with NCI/ADR-RES ovarian was greater than 100 µM; with SK-MEL-2 melanoma, greater than 100 µM; with SK-OV-3 ovarian it was greater than 100 µM; in the assay on SW-620 colon, greater than 100 µM; with UACC-62 melanoma, 45.9 µM.
Regarding `C=C1[C@@](C)([C@@H]2CCCS2)[C@H]2C(C)=C[C@]1(C)n1c(=O)n(-c3ccccc3)c(=O)n12`, the TGI with 786-0 renal, in the assay on CCRF-CEM leukemia, in the assay on DU-145 prostate, in the assay on HL-60(TB) leukemia, in the assay on M14 melanoma and in the assay on MALME-3M melanoma was greater than 100 µM throughout. The TGI with NCI/ADR-RES ovarian, in the assay on SK-MEL-2 melanoma, in the assay with SK-OV-3 ovarian, with SW-620 colon and with UACC-62 melanoma was greater than 100 µM throughout.
As to `CS[C@]12[C@@H]3C(=O)N(C)C(=O)[C@@H]3[C@](C)(C(=O)N1C)C(=O)N2c1ccccc1`, the TGI with 786-0 renal, in the assay on CCRF-CEM leukemia, in the assay on DU-145 prostate, in the assay with HL-60(TB) leukemia, with M14 melanoma and in the assay on MALME-3M melanoma was greater than 100 µM throughout. The TGI in the assay on NCI/ADR-RES ovarian, with SK-MEL-2 melanoma, with SK-OV-3 ovarian, with SW-620 colon and with UACC-62 melanoma was greater than 100 µM each time.
`CC(C)(C)CC(C)(C)NC(=S)NO`: the TGI with 786-0 renal, in the assay on CCRF-CEM leukemia, in the assay on DU-145 prostate, in the assay on HL-60(TB) leukemia, in the assay on M14 melanoma and in the assay with MALME-3M melanoma was greater than 100 µM throughout. The TGI in the assay on NCI/ADR-RES ovarian, in the assay with SK-MEL-2 melanoma, in the assay with SK-OV-3 ovarian, in the assay with SW-620 colon and in the assay on UACC-62 melanoma was greater than 100 µM in each case.
Take `CN(C(=O)c1ccc2c(c1)sc1c(=O)n(C)c3ccccc3c12)c1ccccc1`: the TGI in the assay on 786-0 renal, in the assay on CCRF-CEM leukemia, with DU-145 prostate, with HL-60(TB) leukemia, in the assay with M14 melanoma and with MALME-3M melanoma was greater than 100 µM each time. For the same molecule, the TGI with NCI/ADR-RES ovarian, in the assay on SK-MEL-2 melanoma, in the assay on SK-OV-3 ovarian, in the assay on SW-620 colon and with UACC-62 melanoma was greater than 100 µM in each case.
Regarding `COC(=O)c1c(CC(Cc2ccc3c(c2)CCCC3)C(=O)OC)ccc2c1CCCC2` (stereo not given), the TGI with 786-0 renal is greater than 100 µM; in the assay on CCRF-CEM leukemia it was greater than 100 µM; in the assay on DU-145 prostate it was greater than 100 µM; in the assay with HL-60(TB) leukemia it was 42.4 µM; in the assay with M14 melanoma, greater than 100 µM; with MALME-3M melanoma, greater than 100 µM. Moreover, the TGI in the assay with NCI/ADR-RES ovarian, in the assay on SK-MEL-2 melanoma, in the assay on SK-OV-3 ovarian, in the assay with SW-620 colon and with UACC-62 melanoma was greater than 100 µM each time.
For the molecule `Cc1ccnc2nc(N)ccc12`, the TGI with 786-0 renal, with CCRF-CEM leukemia, with DU-145 prostate, in the assay with HL-60(TB) leukemia, in the assay with M14 melanoma and in the assay on MALME-3M melanoma was greater than 100 µM in each case. Moreover, the TGI in the assay with NCI/ADR-RES ovarian, in the assay with SK-MEL-2 melanoma, with SK-OV-3 ovarian, with SW-620 colon and in the assay on UACC-62 melanoma was greater than 100 µM throughout.
On to `CCCC1C(=O)Nc2cccc3ncn(c23)C1=O` (stereo not given), for which the TGI with 786-0 renal, with CCRF-CEM leukemia, with DU-145 prostate, with HL-60(TB) leukemia, in the assay on M14 melanoma and in the assay with MALME-3M melanoma was greater than 100 µM each time. For the same molecule, the TGI in the assay with NCI/ADR-RES ovarian, in the assay with SK-MEL-2 melanoma, in the assay with SK-OV-3 ovarian, with SW-620 colon and in the assay on UACC-62 melanoma was greater than 100 µM each time.
In the case of `O=C(O)CC[P+](c1ccccc1)(c1ccccc1)c1ccccc1`, the TGI with 786-0 renal is greater than 100 µM; in the assay on CCRF-CEM leukemia, greater than 100 µM; with DU-145 prostate, greater than 100 µM; with HL-60(TB) leukemia, 80.8 µM; in the assay on M14 melanoma it was greater than 100 µM; in the assay with MALME-3M melanoma, greater than 100 µM. Also, the TGI in the assay with NCI/ADR-RES ovarian is greater than 100 µM; with SK-MEL-2 melanoma, 81.8 µM; in the assay with SK-OV-3 ovarian, greater than 100 µM; with SW-620 colon it was greater than 100 µM; in the assay on UACC-62 melanoma, greater than 100 µM.
In the case of `C=C[C@@]1(O)CCCC[C@@H]1CC(Sc1ccccc1)Sc1ccccc1`, the TGI with 786-0 renal was 59.5 µM; in the assay on CCRF-CEM leukemia, greater than 100 µM; in the assay with DU-145 prostate, 32.2 µM; in the assay with HL-60(TB) leukemia it was greater than 100 µM; with M14 melanoma, 37 µM; in the assay on MALME-3M melanoma, 28 µM. For the same molecule, the TGI with NCI/ADR-RES ovarian was 39.7 µM; in the assay with SK-MEL-2 melanoma, 32.3 µM; in the assay with SK-OV-3 ovarian, 31.6 µM; with UACC-62 melanoma, greater than 100 µM.
For `Cc1nc2n(c1/C=C1/C(=O)Nc3ccccc31)CCS2`, the TGI with 786-0 renal, in the assay with CCRF-CEM leukemia, in the assay on DU-145 prostate, in the assay with HL-60(TB) leukemia, with M14 melanoma and with MALME-3M melanoma was greater than 100 µM in each case. The TGI is greater than 100 µM in the assay with NCI/ADR-RES ovarian; 26.2 µM in the assay with SK-MEL-2 melanoma; greater than 100 µM in the assay on SK-OV-3 ovarian; greater than 100 µM with SW-620 colon; greater than 100 µM with UACC-62 melanoma.
As for `CCOC(=O)NNC(=O)NCc1ccccc1CNC(=O)NNC(=O)OCC`, the TGI in the assay on 786-0 renal, in the assay with CCRF-CEM leukemia, in the assay on DU-145 prostate, with HL-60(TB) leukemia, in the assay on M14 melanoma and with MALME-3M melanoma was greater than 100 µM in each case. Besides, the TGI with NCI/ADR-RES ovarian, with SK-MEL-2 melanoma, with SK-OV-3 ovarian, with SW-620 colon and in the assay with UACC-62 melanoma was greater than 100 µM throughout.
`Cc1ccc(NC2=NCCO2)c2c1CCC2`: the TGI with 786-0 renal was greater than 100 µM; in the assay on CCRF-CEM leukemia it was greater than 100 µM; in the assay with DU-145 prostate, greater than 100 µM; in the assay on HL-60(TB) leukemia it was 39.9 µM; with M14 melanoma it was 57 µM; in the assay with MALME-3M melanoma it was 92.4 µM. The TGI in the assay with NCI/ADR-RES ovarian was 50 µM; with SK-MEL-2 melanoma it was 48.9 µM; with SK-OV-3 ovarian it was greater than 100 µM; in the assay on SW-620 colon, greater than 100 µM; in the assay on UACC-62 melanoma, greater than 100 µM.
With `Cc1cccc2nc3c(=O)[nH]c(=O)nc-3n(C)c12`, the TGI in the assay with 786-0 renal is greater than 100 µM; with CCRF-CEM leukemia, greater than 100 µM; in the assay with DU-145 prostate, greater than 100 µM; in the assay with HL-60(TB) leukemia it was 45.9 µM; in the assay with M14 melanoma, greater than 100 µM; in the assay with MALME-3M melanoma, 38.5 µM. For the same molecule, the TGI in the assay with NCI/ADR-RES ovarian, in the assay on SK-MEL-2 melanoma, in the assay on SK-OV-3 ovarian, in the assay on SW-620 colon and with UACC-62 melanoma was greater than 100 µM each time.
For the molecule `Cc1ccc(-n2cc(-c3ccc(Cl)cc3)c3c(NN)ncnc32)cc1`, the TGI with 786-0 renal turned out to be 11.1 µM; in the assay on CCRF-CEM leukemia, 2.52 µM; with DU-145 prostate it was 12.8 µM; in the assay on HL-60(TB) leukemia, 4.99 µM; with M14 melanoma it was 3.75 µM; with MALME-3M melanoma, 21.5 µM. Moreover, the TGI with NCI/ADR-RES ovarian was found to be 15.3 µM; with SK-MEL-2 melanoma it was 47.1 µM; in the assay on SK-OV-3 ovarian, 44.2 µM; in the assay with SW-620 colon it was 26.2 µM; in the assay on UACC-62 melanoma it was 13.2 µM.
In the case of `OCC(CCc1ccccc1I)C1=CCC2(CC1)OCCO2` (stereo not given), the TGI in the assay on 786-0 renal came to 42.5 µM; in the assay with CCRF-CEM leukemia it was 35.7 µM; in the assay on DU-145 prostate, 48 µM; with HL-60(TB) leukemia, 28.9 µM; in the assay on M14 melanoma, 35.3 µM; in the assay with MALME-3M melanoma, 33.6 µM. Besides, the TGI in the assay with NCI/ADR-RES ovarian was 48 µM; in the assay with SK-MEL-2 melanoma, 51 µM; in the assay on SK-OV-3 ovarian it was greater than 100 µM; in the assay with SW-620 colon, 61.5 µM; in the assay with UACC-62 melanoma it was 35.6 µM.
`C[N+](C)(C)C=Nc1cccc2c1CCCC2`: the TGI in the assay on 786-0 renal, in the assay on CCRF-CEM leukemia, in the assay on DU-145 prostate, with HL-60(TB) leukemia, in the assay on M14 melanoma and with MALME-3M melanoma was greater than 100 µM in each case. Besides, the TGI in the assay on NCI/ADR-RES ovarian, with SK-MEL-2 melanoma, with SK-OV-3 ovarian and in the assay on UACC-62 melanoma was greater than 100 µM each time.
Turning to `COCC1OC(S(=O)(=O)c2ccccc2)C(O)C(OC)C1OC` (stereo not given), the TGI in the assay with 786-0 renal, in the assay on CCRF-CEM leukemia, in the assay with DU-145 prostate, with HL-60(TB) leukemia, in the assay with M14 melanoma and with MALME-3M melanoma was greater than 100 µM throughout. Moreover, the TGI in the assay on NCI/ADR-RES ovarian, in the assay with SK-MEL-2 melanoma, with SK-OV-3 ovarian, in the assay on SW-620 colon and in the assay on UACC-62 melanoma was greater than 100 µM each time.

Values taken from PubChem BioAssay (NCI).
